In ChEMBL document CHEMBL5212743, “Selectivity Literature for EUbOPEN Chemogenomics Library wave 3” (2023):
Each block holds one compound with its values, some of them ahead of it.

Assays:
[1] = target: Megakaryocyte-associated tyrosine-protein kinase (Homo sapiens) (UniProt P42679); assay: Selectivity interaction (KinomeScan (DiscoverX)) EUB0000743a MATK; settings: Cellular assay (active RAS (KRAS, HRAS,NRAS) in Calu-1 cells ([…])): IC50 = 4120 nM, https://www.sgc-ffm.uni-frankfurt.d, at 1 µM
[2] = target: SRSF protein kinase 2 (Homo sapiens) (UniProt P78362); assay: Selectivity interaction (KinomeScan (DiscoverX)) EUB0000743a SRPK2; settings: Cellular assay (active RAS (KRAS, HRAS,NRAS) in Calu-1 cells ([…])): IC50 = 4120 nM, https://www.sgc-ffm.uni-frankfurt.d, at 1 µM
[3] = target: Muscarinic acetylcholine receptor M1 (Homo sapiens, UniProt P11229); assay: Selectivity interaction (GPCR panel (PDSP screen)) EUB0000743a CHRM1
[4] = target: Receptor-type tyrosine-protein kinase FLT3 (Homo sapiens) (UniProt P36888); assay: Selectivity interaction (KinomeScan (DiscoverX)) EUB0000548a FLT3; settings: at 1 µM
[5] = target: T1, Gamma-aminobutyric acid receptor subunit alpha-1 (Homo sapiens, UniProt P14867); assay: Selectivity interaction (GPCR panel (PDSP screen)) EUB0000548a GABRA1
T1 sequence (P14867 whole entry): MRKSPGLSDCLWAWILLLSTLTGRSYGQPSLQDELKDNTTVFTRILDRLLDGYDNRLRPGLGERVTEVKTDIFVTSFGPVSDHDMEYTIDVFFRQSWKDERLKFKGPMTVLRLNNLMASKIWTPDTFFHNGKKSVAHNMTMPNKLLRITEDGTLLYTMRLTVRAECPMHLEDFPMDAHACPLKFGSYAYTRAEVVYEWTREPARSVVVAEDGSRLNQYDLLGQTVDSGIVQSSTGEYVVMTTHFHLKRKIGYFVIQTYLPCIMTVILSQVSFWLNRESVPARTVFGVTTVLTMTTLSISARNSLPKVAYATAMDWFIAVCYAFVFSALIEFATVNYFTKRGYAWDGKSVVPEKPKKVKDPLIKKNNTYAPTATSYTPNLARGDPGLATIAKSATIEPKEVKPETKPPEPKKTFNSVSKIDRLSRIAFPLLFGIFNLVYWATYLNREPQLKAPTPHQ

[6] = target: T2, Myosin-IIIb (Homo sapiens) (UniProt Q8WXR4); assay: Selectivity interaction (KinomeScan (DiscoverX)) EUB0000548a MYO3B; settings: at 1 µM
T2 sequence (whole entry): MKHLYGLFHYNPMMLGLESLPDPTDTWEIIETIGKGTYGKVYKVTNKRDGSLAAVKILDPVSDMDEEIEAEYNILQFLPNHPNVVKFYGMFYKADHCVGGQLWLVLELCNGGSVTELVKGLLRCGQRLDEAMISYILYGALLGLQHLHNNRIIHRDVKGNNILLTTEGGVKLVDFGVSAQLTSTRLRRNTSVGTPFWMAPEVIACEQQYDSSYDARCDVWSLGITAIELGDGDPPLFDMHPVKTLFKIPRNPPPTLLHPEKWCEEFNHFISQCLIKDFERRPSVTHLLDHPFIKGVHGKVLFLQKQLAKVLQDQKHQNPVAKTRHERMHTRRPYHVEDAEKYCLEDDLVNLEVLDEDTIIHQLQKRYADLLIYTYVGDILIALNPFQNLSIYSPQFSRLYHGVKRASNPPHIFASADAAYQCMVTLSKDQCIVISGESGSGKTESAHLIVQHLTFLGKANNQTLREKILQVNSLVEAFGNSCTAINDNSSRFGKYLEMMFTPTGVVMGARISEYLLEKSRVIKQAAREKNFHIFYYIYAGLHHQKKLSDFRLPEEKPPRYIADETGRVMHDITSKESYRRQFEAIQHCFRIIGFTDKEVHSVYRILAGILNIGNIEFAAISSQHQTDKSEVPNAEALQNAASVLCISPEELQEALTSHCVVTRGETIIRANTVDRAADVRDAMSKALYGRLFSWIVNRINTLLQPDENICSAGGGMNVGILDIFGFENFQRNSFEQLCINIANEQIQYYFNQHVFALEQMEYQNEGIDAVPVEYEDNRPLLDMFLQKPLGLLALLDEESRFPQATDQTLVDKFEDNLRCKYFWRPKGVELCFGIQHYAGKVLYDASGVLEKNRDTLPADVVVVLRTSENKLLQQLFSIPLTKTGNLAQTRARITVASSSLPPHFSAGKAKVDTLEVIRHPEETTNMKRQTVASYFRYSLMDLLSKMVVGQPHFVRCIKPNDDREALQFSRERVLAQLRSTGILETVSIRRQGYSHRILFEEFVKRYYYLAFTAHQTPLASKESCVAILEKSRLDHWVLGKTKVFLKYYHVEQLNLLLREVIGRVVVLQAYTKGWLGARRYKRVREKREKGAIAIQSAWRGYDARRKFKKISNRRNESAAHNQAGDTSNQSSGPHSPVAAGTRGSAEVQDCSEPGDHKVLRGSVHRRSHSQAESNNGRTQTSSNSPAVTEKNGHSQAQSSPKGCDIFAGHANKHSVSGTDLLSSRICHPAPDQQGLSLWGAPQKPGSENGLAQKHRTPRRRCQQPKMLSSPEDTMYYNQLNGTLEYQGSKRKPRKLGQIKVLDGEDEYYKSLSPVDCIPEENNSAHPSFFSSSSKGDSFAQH

[7] = target: Non-receptor tyrosine-protein kinase TYK2 (Homo sapiens, UniProt P29597); assay: Selectivity interaction (KinomeScan (DiscoverX)) EUB0000291b TYK2; settings: at 1 µM
[8] = target: Cyclin-dependent kinase 4 (Homo sapiens) (UniProt P11802); assay: Selectivity interaction (KinomeScan (DiscoverX)) EUB0000291b CDK4; settings: at 1 µM
[9] = target: Proteinase-activated receptor 4 (Homo sapiens, UniProt Q96RI0); assay: Selectivity interaction (Functional cellular assay (using HEK cells expressing F2RL3)) EUB0000291b F2RL3
[10] = target: Serine/threonine-protein kinase DCLK2 (Homo sapiens) (UniProt Q8N568); assay: Selectivity interaction (KinomeScan (DiscoverX)) EUB0000291b DCLK2; settings: at 1 µM
[11] = target: T3, Cannabinoid receptor 1 (Homo sapiens, UniProt P21554); assay: Selectivity interaction (CNR1 functional assay (GTPyS binding)) EUB0000291b CNR1
[12] = target: T3, Cannabinoid receptor 1; assay: Selectivity interaction (Eurofins-Panlabs radioligand binding assay) EUB0000291b CNR1; settings: at 10 µM
[13] = target: Cyclin-dependent kinase 18 (Homo sapiens) (UniProt Q07002); assay: Selectivity interaction (KinomeScan (DiscoverX)) EUB0000291b CDK18; settings: at 1 µM
[14] = target: Mitogen-activated protein kinase kinase kinase 12 (Homo sapiens) (UniProt Q12852); assay: Selectivity interaction (KinomeScan (DiscoverX)) EUB0000291b MAP3K12; settings: at 1 µM
[15] = target: Cyclin-dependent kinase 11A (Homo sapiens) (UniProt Q9UQ88); assay: Selectivity interaction (KinomeScan (DiscoverX)) EUB0000291b CDK11A; settings: at 1 µM
[16] = target: Tyrosine-protein kinase Fyn (Homo sapiens, UniProt P06241); assay: Selectivity interaction (Kinase panel (HTRF assay)) EUB0000221b FYN
[17] = target: Histone-lysine N-methyltransferase SMYD3 (Homo sapiens) (UniProt Q9H7B4); assay: Selectivity interaction (Methyltransferase panel) EUB0000221b SMYD3; settings: at 10 µM
Chain of Histone-lysine N-methyltransferase SMYD3 (Homo sapiens) (Q9H7B4 whole entry): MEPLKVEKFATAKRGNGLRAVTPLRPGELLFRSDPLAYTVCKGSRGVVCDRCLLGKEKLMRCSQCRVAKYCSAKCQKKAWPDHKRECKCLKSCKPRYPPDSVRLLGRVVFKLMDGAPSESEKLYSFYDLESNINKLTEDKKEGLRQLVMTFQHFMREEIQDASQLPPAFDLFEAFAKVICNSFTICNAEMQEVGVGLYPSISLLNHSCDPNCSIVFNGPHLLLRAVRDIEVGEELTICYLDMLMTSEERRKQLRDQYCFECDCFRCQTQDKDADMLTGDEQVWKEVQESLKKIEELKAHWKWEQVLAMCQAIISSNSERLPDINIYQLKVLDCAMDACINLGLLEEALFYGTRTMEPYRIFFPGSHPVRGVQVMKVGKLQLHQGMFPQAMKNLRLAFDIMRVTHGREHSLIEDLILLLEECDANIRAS

T3 sequence (P21554 whole entry): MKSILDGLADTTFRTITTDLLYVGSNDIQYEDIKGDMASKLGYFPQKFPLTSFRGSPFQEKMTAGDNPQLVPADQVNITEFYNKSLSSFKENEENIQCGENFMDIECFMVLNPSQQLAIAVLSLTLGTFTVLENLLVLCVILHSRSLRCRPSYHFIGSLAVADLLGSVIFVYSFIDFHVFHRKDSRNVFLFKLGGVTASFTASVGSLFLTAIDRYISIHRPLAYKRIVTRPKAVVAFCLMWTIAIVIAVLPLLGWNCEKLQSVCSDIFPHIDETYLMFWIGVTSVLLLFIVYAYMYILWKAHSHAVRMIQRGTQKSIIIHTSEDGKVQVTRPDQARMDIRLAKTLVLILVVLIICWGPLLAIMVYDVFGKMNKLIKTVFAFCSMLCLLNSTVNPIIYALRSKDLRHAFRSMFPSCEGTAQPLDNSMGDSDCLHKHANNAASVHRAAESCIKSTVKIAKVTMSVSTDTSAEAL
Chain of Proteinase-activated receptor 4 (Q96RI0 whole entry): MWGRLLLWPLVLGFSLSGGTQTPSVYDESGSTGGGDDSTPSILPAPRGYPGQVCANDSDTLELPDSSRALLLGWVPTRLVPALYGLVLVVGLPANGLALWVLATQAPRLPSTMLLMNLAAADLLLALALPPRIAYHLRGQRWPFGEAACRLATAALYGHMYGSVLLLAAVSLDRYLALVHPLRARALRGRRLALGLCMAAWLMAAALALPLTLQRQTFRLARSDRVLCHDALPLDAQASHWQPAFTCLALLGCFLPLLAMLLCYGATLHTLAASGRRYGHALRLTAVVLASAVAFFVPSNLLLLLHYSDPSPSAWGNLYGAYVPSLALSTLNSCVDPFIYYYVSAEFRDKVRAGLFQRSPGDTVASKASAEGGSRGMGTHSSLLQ
Chain of Serine/threonine-protein kinase DCLK2 (Homo sapiens) (Q8N568 whole entry): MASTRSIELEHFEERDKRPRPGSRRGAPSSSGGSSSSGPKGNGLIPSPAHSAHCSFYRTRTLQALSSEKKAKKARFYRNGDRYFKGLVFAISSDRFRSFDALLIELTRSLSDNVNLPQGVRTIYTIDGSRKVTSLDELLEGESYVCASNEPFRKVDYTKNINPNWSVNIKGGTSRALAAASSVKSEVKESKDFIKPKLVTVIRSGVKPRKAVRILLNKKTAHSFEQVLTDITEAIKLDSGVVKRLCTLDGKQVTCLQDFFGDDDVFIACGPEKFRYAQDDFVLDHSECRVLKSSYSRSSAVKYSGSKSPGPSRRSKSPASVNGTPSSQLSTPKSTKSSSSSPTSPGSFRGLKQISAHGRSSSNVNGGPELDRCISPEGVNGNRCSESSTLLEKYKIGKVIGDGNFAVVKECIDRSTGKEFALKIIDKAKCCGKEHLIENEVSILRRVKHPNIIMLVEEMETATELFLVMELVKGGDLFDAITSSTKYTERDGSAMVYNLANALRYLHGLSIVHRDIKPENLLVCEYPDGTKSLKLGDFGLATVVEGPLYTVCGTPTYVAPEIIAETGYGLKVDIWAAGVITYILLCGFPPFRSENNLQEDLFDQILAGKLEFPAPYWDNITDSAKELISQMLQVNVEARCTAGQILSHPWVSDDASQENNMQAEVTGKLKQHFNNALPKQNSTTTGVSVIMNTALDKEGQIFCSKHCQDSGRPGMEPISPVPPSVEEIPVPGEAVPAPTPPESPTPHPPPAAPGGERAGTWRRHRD
Chain of Non-receptor tyrosine-protein kinase TYK2 (P29597 whole entry): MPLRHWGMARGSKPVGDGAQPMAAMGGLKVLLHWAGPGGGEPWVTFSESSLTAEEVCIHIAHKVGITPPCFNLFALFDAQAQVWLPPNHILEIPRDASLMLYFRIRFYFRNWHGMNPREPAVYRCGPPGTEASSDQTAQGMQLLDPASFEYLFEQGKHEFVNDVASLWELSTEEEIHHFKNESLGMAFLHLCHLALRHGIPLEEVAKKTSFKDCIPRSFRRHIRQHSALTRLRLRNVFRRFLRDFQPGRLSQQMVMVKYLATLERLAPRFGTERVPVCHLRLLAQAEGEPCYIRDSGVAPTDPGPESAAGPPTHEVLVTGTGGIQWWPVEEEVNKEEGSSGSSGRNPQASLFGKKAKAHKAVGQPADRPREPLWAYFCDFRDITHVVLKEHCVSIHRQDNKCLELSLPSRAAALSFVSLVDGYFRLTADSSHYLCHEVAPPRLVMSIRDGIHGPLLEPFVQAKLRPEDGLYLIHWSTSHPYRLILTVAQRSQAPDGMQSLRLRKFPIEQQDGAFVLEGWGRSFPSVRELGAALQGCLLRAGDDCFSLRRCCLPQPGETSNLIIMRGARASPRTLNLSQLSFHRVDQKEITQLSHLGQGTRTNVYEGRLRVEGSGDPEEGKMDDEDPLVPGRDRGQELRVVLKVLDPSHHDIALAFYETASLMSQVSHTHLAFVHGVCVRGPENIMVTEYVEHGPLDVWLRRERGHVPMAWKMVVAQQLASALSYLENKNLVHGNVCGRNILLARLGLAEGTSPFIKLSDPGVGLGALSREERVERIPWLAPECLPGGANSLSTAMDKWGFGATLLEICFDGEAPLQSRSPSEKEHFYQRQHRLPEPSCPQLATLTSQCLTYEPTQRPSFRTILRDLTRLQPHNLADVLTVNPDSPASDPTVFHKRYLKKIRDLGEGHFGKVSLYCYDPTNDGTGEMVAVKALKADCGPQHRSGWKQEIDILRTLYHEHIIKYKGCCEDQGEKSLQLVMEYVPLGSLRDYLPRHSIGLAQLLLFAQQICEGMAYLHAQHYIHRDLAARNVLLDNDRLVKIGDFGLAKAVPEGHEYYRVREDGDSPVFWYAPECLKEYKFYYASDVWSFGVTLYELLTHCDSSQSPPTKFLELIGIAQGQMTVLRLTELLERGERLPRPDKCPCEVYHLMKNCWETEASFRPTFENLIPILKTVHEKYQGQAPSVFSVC
Chain of Muscarinic acetylcholine receptor M1 (P11229 whole entry): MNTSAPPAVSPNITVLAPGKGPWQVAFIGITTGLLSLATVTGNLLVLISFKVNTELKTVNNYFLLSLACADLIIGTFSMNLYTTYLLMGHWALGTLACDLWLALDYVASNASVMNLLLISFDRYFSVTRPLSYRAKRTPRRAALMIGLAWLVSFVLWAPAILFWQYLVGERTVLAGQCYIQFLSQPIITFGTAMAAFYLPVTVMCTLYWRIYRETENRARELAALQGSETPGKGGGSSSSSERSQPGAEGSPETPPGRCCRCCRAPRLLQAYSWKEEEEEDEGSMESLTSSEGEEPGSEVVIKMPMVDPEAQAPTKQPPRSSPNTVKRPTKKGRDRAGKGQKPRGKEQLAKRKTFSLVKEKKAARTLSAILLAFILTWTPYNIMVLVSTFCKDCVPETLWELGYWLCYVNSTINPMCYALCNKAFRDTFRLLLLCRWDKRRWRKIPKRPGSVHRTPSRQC
Chain of Cyclin-dependent kinase 4 (Homo sapiens) (P11802 whole entry): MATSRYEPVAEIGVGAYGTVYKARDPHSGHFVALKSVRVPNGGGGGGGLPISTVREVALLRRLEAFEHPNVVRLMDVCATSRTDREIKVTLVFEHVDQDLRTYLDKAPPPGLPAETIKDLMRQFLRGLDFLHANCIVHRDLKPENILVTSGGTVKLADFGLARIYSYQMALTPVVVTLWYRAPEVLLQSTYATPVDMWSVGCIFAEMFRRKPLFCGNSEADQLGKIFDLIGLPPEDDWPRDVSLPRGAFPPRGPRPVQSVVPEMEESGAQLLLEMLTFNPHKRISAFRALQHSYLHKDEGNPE
Chain of Cyclin-dependent kinase 18 (Homo sapiens) (Q07002 whole entry): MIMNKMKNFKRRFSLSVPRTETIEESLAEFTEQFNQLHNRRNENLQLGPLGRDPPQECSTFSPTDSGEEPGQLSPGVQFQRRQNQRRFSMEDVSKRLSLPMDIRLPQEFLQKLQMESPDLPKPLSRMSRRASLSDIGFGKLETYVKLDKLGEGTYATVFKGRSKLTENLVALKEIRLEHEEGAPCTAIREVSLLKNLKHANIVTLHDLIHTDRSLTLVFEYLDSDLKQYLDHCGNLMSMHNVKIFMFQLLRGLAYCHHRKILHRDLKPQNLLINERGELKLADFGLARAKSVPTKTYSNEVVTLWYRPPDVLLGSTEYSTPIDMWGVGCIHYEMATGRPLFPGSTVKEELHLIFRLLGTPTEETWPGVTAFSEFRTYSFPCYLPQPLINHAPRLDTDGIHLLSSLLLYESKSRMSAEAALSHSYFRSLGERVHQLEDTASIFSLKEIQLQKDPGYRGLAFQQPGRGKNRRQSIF
Chain of Tyrosine-protein kinase Fyn (P06241 whole entry): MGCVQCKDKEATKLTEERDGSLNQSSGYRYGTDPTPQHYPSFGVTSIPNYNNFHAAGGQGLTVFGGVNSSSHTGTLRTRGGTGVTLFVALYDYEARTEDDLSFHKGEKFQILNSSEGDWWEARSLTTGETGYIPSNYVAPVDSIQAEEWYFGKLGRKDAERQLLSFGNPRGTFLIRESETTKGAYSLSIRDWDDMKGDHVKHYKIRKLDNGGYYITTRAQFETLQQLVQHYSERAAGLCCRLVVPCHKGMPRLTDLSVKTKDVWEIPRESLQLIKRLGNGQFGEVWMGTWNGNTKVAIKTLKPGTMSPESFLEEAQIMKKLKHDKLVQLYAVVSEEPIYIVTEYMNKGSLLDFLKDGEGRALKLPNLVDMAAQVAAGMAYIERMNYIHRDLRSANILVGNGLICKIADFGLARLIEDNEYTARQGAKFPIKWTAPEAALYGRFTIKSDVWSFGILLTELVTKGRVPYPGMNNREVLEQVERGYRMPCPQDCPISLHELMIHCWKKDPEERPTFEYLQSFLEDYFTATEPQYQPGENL

- % of control [1]: 51%
- % of control [2]: 52%
- Ki [3]: 0.614 µM
SMILES: CNCc1ccccc1-c1csc([C@H](C)Nc2nc(C)nc3cc(OC)c(OC)cc23)c1 [BAY-294]

- % of control [4]: 32%
- Ki [5]: 0.25 µM
- % of control [6]: 29%
SMILES: NS(=O)(=O)c1cc(NC(=O)C2(c3ccccc3Cl)CC2)ccc1Oc1cccc(Cl)c1 [BAY-207]

- % of control [7]: 53%
- % of control [8]: 18%
- IC50 [9]: > 10 µM
- % of control [10]: 0%
- IC50 [11]: 10.6 µM
- % of inhibition [12]: 88%
- % of control [13]: 0%
- % of control [14]: 0%
- % of control [15]: 0%
SMILES: O=C(N1CCS(=O)(=O)CC1)N1C[C@H](c2ccc(OC(F)(F)F)cc2)C[C@H](c2nc(C3CC3)no2)C1 [BAY-386]

- IC50 [16]: 5.71 µM
- % of activity remaining [17]: 40%
SMILES: C[C@H]1CC(=O)Nc2cc(C(=O)NCCC3CC3)ccc2N1C(=O)N1CC2CC2C1 (some centres not stated)
